Assay results from ChEMBL document CHEMBL1127987, “()11-Amino-2,6-dimethyl-1,2,3,4-tetrahydro-6H-quinindolin-1-one, a novel gabaA modulator with potential anxiolytic activity” (Bioorg Med Chem Lett, 1994).

What was measured:
[1] = biological target: GABA-A receptor; anion channel; assay: Inhibition of [35S]TBPS binding to Gamma-aminobutyric acid A (GABA-A) receptor of rat brain in the presence of 5 uM GABA
Rattus norvegicus [2] = species: Rattus norvegicus; assay: Minimum effective peroral dose in Geller-Seifter paradigm; type: functional; conditions: po, read-out: MED
Rattus norvegicus [3] = assay: Punished responding phase in Geller-Seifter test was determined at 1 hr post-dose of 5 mg/Kg p.o.; type: functional
Rattus norvegicus [4] = assay: Punished responding phase in Geller-Seifter test was determined at 2 hr post-dose of 5 mg/Kg p.o.; type: functional
Rattus norvegicus [5] = assay: Number of animals responding out of those tested (Nr/N) in Geller-Seifter test was determined at 2 hr post-dose of 5 mg/Kg p.o. (Animals tested 16); type: functional
Rattus norvegicus [6] = assay: Number of animals responding out of those tested (Nr/N) in Geller-Seifter test was determined at 1 hr post-dose of 5 mg/Kg p.o. (Animals tested 8); type: functional
[7] = biological target: T1, GABA-A receptor; anion channel (Rattus norvegicus) (UniProt O09028+P15431+P18506+P18508+P19969+P20236+P23574+P23576+P28471+P28473+P30191+P62813+P63079+P63138+Q91ZM7+Q9ES14); conditions: Cerebral cortex, 0.12 uM
Description: Inhibition of [3H]Flunitrazepam binding to rat cerebral cortex at 0.12 uM

[8] = biological target: T1, GABA-A receptor; anion channel (Rattus norvegicus); conditions: 0.01 uM
Description: Inhibition of [35S]TBPS binding to Gamma-aminobutyric acid A (GABA-A) receptor of rat brain in the presence of 5 uM GABA at 0.01 uM

[9] = biological target: GABA-A receptor; anion channel; assay: Displacement of [3H]flunitrazepam from rat cerebral cortex; type: tissue-based
Rattus norvegicus [10] = assay: Punished responding phase in Geller-Seifter test was determined at 1 hr post-dose of 10 mg/Kg p.o.; type: functional
Rattus norvegicus [11] = assay: Punished responding phase in Geller-Seifter test was determined at 1 hr post-dose of 100 mg/Kg p.o.; type: functional
Rattus norvegicus [12] = assay: Punished responding phase in Geller-Seifter test was determined at 1 hr post-dose of 2.5 mg/Kg p.o.; type: functional
Rattus norvegicus [13] = assay: Punished responding phase in Geller-Seifter test was determined at 1 hr post-dose of 20 mg/Kg p.o.; type: functional
Rattus norvegicus [14] = assay: Punished responding phase in Geller-Seifter test was determined at 1 hr post-dose of 50 mg/Kg p.o.; type: functional
Rattus norvegicus [15] = assay: Punished responding phase in Geller-Seifter test was determined at 2 hr post-dose of 10 mg/Kg p.o.; type: functional
Rattus norvegicus [16] = assay: Punished responding phase in Geller-Seifter test was determined at 2 hr post-dose of 100 mg/Kg p.o.; type: functional
Rattus norvegicus [17] = assay: Punished responding phase in Geller-Seifter test was determined at 2 hr post-dose of 20 mg/Kg p.o.; type: functional
Rattus norvegicus [18] = assay: Punished responding phase in Geller-Seifter test was determined at 2 hr post-dose of 50 mg/Kg p.o.; type: functional
Rattus norvegicus [19] = assay: Number of animals responding out of those tested (Nr/N) in Geller-Seifter test was determined at 1 hr post-dose of 10 mg/Kg p.o. (Animals tested 6); type: functional
Rattus norvegicus [20] = assay: Number of animals responding out of those tested (Nr/N) in Geller-Seifter test was determined at 1 hr post-dose of 100 mg/Kg p.o. (Animals tested 6); type: functional
Rattus norvegicus [21] = assay: Number of animals responding out of those tested (Nr/N) in Geller-Seifter test was determined at 1 hr post-dose of 2.5 mg/Kg p.o. (Animals tested 6); type: functional
Rattus norvegicus [22] = assay: Number of animals responding out of those tested (Nr/N) in Geller-Seifter test was determined at 2 hr post-dose of 20 mg/Kg p.o. (Animals tested 6); type: functional
Rattus norvegicus [23] = assay: Number of animals responding out of those tested (Nr/N) in Geller-Seifter test was determined at 2 hr post-dose of 50 mg/Kg p.o. (Animals tested 6); type: functional
Rattus norvegicus [24] = assay: Number of animals responding out of those tested (Nr/N) in Geller-Seifter test was determined at 1 hr post-dose of 20 mg/Kg p.o. (Animals tested 6); type: functional
Rattus norvegicus [25] = assay: Number of animals responding out of those tested (Nr/N) in Geller-Seifter test was determined at 1 hr post-dose of 5 mg/Kg p.o. (Animals tested 14); type: functional
Rattus norvegicus [26] = assay: Number of animals responding out of those tested (Nr/N) in Geller-Seifter test was determined at 1 hr post-dose of 50 mg/Kg p.o. (Animals tested 6); type: functional
Rattus norvegicus [27] = assay: Number of animals responding out of those tested (Nr/N) in Geller-Seifter test was determined at 2 hr post-dose of 10 mg/Kg p.o. (Animals tested 14); type: functional
Rattus norvegicus [28] = assay: Number of animals responding out of those tested (Nr/N) in Geller-Seifter test was determined at 2 hr post-dose of 100 mg/Kg p.o. (Animals tested 6); type: functional
Rattus norvegicus [29] = assay: Number of animals responding out of those tested (Nr/N) in Geller-Seifter test was determined at 1 hr post-dose of 10 mg/Kg p.o. (Animals tested 15); type: functional
Rattus norvegicus [30] = assay: Number of animals responding out of those tested (Nr/N) in Geller-Seifter test was determined at 1 hr post-dose of 100 mg/Kg p.o. (Animals tested 16); type: functional
Rattus norvegicus [31] = assay: Number of animals responding out of those tested (Nr/N) in Geller-Seifter test was determined at 1 hr post-dose of 20 mg/Kg p.o. (Animals tested 16); type: functional
Rattus norvegicus [32] = assay: Number of animals responding out of those tested (Nr/N) in Geller-Seifter test was determined at 2 hr post-dose of 50 mg/Kg p.o. (Animals tested 16); type: functional
Rattus norvegicus [33] = assay: Number of animals responding out of those tested (Nr/N) in Geller-Seifter test was determined at 1 hr post-dose of 5 mg/Kg p.o. (Animals tested 6); type: functional
Rattus norvegicus [34] = assay: Number of animals responding out of those tested (Nr/N) in Geller-Seifter test was determined at 1 hr post-dose of 50 mg/Kg p.o. (Animals tested 16); type: functional
Rattus norvegicus [35] = assay: Number of animals responding out of those tested (Nr/N) in Geller-Seifter test was determined at 2 hr post-dose of 20 mg/Kg p.o. (Animals tested 16); type: functional
Rattus norvegicus [36] = assay: Number of animals responding out of those tested (Nr/N) in Geller-Seifter test was determined at 2 hr post-dose of 20 mg/Kg p.o. (Animals tested 8); type: functional
[37] = tested on: GABA-A receptor; anion channel; assay: Displacement of [3H]flunitrazepam from rat cerebral cortex (Insoluble); type: tissue-based

Structure (SMILES): CCC1CCc2nc3c(c(N)c2C1=O)c1ccccc1n3C (centres undefined)
- IC50 ([1]; read-out: IC50): 940 nM
- minimal effective dose (Rattus norvegicus [2]): 20 mg/kg

Structure (SMILES): CN1C(=O)CN=C(c2ccccc2)c2cc(Cl)ccc21 [DIAZEPAM]
- Change (Rattus norvegicus [3]): 57%
- Change (Rattus norvegicus [4]): 38%
- minimal effective dose (Rattus norvegicus [2]): 2.5 mg/kg
- Nr/N (Rattus norvegicus [5]): 8
- Nr/N (Rattus norvegicus [6]): 6
- inhibition [7]: 100%
- inhibition [8]: < 50%

Structure (SMILES): CC1CCc2nc3c(c(N)c2C1=O)c1ccccc1n3C (centres undefined)
- IC50 [9]: > 100000 nM
- IC50 ([1]; read-out: IC50): 950 nM
- Change (Rattus norvegicus [10]): 43%
- Change (Rattus norvegicus [11]): 137%
- Change (Rattus norvegicus [12]): 0%
- Change (Rattus norvegicus [13]): 52%
- Change (Rattus norvegicus [3]): 19%
- Change (Rattus norvegicus [14]): 146%
- Change (Rattus norvegicus [15]): 22%
- Change (Rattus norvegicus [16]): 141%
- Change (Rattus norvegicus [17]): 36%
- Change (Rattus norvegicus [18]): 62%
- minimal effective dose (Rattus norvegicus [2]): 5 mg/kg
- Nr/N (Rattus norvegicus [19]): 5
- Nr/N (Rattus norvegicus [20]): 6
- Nr/N (Rattus norvegicus [21]): 0
- Nr/N (Rattus norvegicus [22]): 6
- Nr/N (Rattus norvegicus [23]): 6
- Nr/N (Rattus norvegicus [24]): 5
- Nr/N (Rattus norvegicus [25]): 8
- Nr/N (Rattus norvegicus [26]): 5
- Nr/N (Rattus norvegicus [27]): 7
- Nr/N (Rattus norvegicus [28]): 6

Structure (SMILES): CCOC(=O)c1c(C)nc2c(c1N)c1ccccc1n2C
- IC50 [9]: > 100000 nM
- IC50 ([1]; read-out: IC50): 2000 nM
- Change (Rattus norvegicus [10]): 20%
- Change (Rattus norvegicus [11]): 122%
- Change (Rattus norvegicus [13]): 22%
- Change (Rattus norvegicus [3]): 2%
- Change (Rattus norvegicus [14]): 63%
- Change (Rattus norvegicus [17]): 6%
- Change (Rattus norvegicus [18]): 4%
- minimal effective dose (Rattus norvegicus [2]): 10 mg/kg
- Nr/N (Rattus norvegicus [29]): 10
- Nr/N (Rattus norvegicus [30]): 14
- Nr/N (Rattus norvegicus [31]): 12
- Nr/N (Rattus norvegicus [32]): 6
- Nr/N (Rattus norvegicus [33]): 5
- Nr/N (Rattus norvegicus [34]): 15
- Nr/N (Rattus norvegicus [35]): 6

Structure (SMILES): Cc1nc2c(c(N)c1C(=O)O)c1ccccc1n2C
- IC50 [9]: > 100000 nM
- IC50 ([1]; read-out: IC50): > 100000 nM
- minimal effective dose (Rattus norvegicus [2]): > 50 mg/kg

Structure (SMILES): CCC(=O)c1c(C)nc2c(c1N)c1ccccc1n2C
- IC50 [9]: > 100000 nM
- IC50 ([1]; read-out: IC50): 1600 nM
- Change (Rattus norvegicus [13]): 41%
- Change (Rattus norvegicus [17]): 28%
- minimal effective dose (Rattus norvegicus [2]): 20 mg/kg
- Nr/N (Rattus norvegicus [36]): 5
- Nr/N (Rattus norvegicus [24]): 5

Structure (SMILES): CCCC(=O)c1c(C)nc2c(c1N)c1ccccc1n2C
- IC50 ([1]; read-out: IC50): 2300 nM
- minimal effective dose (Rattus norvegicus [2]): 20 mg/kg

Structure (SMILES): Cn1c2ccccc2c2c(N)c3c(nc21)CCOC3=O
- IC50 [37]: Insoluble
- IC50 [1]: Insoluble
- minimal effective dose (Rattus norvegicus [2]): > 20 mg/kg
